Broadly, the IC50 is the point on the concentration scale where inhibition reaches its midpoint.

Values after ≈ are worked out from the molar mass of the structure shown. Where two headings read alike, the source gives them in different places. Positions of bridges follow the written chain, without caps; N, C: chain ends. Non-standard residues stand in square brackets, D forms with d. Residues, ends and D or L forms follow the SMILES beside them. hArg = N=C(N)NCCCC[C@H](N)C(=O)O; Mpa = O=C(O)CCS

The record followed here is US11202854B2, “Disintegrin variants and uses thereof” (National Taiwan University, priority 2017, dated 2021).

Data set [1] has as its system platelets.
Protocol: Disintegrin and its variants of Example 1 were subject to test for their abilities in suppressing platelet aggregation mediated by αIIbβ3. Briefly, venous blood samples from healthy donors were collected and platelet-rich plasma was prepared therefrom. The platelet-rich plasma was then incubated with the stimulant (e.g., collagen or AP2) that triggered plug formation, then with the disintegrin and/or its variants of Example 1.
A short description of data set [2]: Tail bleeding time. Format: in vivo, mouse. The note with it: 0.18 mg/Kg, mice. As for the experimental part:
Male ICR mice weighing 20-30 g were used in all studies. Animals were allowed to access food and water ad libitum under controlled temperature (20±1° C.) and humidity (55%±5%). The animal experimental protocols were approved by the Laboratory Animal Use Committee of College of Medicine, National Taiwan University.
Male ICR mice were intravenously injected through a lateral tail vein of the mouse with agents. A sharp cut of 2 mm segment from the distal tail was made 5 min after injection. The amputated tail was immediately placed into a tube filled with isotonic saline at 37° C. Bleeding time was recorded for a maximum of 10 min and the end point was the arrest of bleeding.

Data set [3] relates to platelets. Put plainly: Ex vivo collagen-induced platelet aggregation response. In kind it is in vivo, mouse. The settings on record: FIG. 1 panels B and C.
In data set [4] the target is T1, integrin αIIbβ3 (Homo sapiens, UniProt P05106+P08514).
T1 construct: host or cells: CHO (Chinese hamster ovary) cells
T1 sequence (P08514 32-887 limits assumed): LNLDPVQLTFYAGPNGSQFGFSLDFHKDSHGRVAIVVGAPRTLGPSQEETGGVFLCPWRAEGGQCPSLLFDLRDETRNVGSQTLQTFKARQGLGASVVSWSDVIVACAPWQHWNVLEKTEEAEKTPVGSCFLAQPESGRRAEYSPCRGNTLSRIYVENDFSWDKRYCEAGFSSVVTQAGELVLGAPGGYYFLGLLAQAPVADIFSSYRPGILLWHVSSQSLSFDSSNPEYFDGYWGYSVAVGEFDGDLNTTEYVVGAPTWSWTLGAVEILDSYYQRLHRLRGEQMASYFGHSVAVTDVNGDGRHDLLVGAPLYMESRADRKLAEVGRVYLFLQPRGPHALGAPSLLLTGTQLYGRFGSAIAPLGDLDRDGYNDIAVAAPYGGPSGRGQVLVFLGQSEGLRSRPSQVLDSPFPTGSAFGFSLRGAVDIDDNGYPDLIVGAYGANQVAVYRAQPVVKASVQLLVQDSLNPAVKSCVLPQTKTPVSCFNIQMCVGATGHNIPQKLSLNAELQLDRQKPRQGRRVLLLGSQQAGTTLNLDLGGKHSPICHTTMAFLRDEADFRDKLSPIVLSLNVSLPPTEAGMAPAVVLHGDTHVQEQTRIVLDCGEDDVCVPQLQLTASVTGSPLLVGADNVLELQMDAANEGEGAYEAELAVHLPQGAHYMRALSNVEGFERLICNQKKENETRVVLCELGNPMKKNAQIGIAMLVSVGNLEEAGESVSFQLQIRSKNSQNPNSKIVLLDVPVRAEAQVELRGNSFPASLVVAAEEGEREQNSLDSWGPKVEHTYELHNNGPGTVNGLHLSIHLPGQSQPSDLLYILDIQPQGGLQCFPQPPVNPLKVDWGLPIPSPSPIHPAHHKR
T1 sequence (P08514 891-1039 partner limits assumed): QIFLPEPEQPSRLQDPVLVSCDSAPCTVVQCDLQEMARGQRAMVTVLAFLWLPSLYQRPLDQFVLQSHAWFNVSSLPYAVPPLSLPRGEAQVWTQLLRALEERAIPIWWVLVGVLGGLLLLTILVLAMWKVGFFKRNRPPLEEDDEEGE
T1 sequence (P05106 27-788): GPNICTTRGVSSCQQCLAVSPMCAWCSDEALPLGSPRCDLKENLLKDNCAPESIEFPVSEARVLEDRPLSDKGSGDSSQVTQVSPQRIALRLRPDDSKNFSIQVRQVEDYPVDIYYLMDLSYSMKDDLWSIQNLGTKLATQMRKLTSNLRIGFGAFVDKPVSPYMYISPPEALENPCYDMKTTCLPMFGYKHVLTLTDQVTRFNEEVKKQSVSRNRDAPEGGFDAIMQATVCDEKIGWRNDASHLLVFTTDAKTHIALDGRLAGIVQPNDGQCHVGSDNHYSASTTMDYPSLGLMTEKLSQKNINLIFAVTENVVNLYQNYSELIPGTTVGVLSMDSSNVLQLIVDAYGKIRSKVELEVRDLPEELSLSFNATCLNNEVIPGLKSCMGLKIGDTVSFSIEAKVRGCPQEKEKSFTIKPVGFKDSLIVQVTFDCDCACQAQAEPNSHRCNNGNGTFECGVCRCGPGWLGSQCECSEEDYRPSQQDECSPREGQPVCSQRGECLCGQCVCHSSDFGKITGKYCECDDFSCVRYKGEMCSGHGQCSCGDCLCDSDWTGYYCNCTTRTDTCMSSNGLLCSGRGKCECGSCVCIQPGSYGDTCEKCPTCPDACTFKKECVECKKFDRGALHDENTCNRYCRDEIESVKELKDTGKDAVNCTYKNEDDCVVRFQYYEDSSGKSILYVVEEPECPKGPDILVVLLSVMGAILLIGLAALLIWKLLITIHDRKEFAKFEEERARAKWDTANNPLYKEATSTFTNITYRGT
Put plainly: Cell adhesion assay: CHO-αIIbβ3 cells to fibrinogen. Format: cell-based. The settings on record: Table 3. As for the experimental part:
(§1) A cell adhesion assay was used to determine the inhibitory activity of Rho, TMV, and their variants and was conducted according to previously described protocols. 96-well microtiter plates (Costar; Corning) were coated with 100 μL PBS buffer containing 200 μg/mL fibrinogen or 50 μg/mL fibronectin, and incubated overnight at 4° C. Non-specific protein binding sites were blocked by incubating each well with 200 μL of heat-denatured 1% bovine serum albumin (BSA) (Calbiochem) at room temperature for 1.5 h. The heat-denatured BSA was discarded and each well was washed twice with 200 μL PBS.
(§2) Chinese hamster ovary (CHO) cells that expressed integrins αvβ3 (CHO-αvβ3) and αIIbβ3 (CHO-αIIbβ3) were kindly provided by Dr. Y. Takada (Scripps Research Institute) and maintained in Dulbecco's modified Eagle's medium (18, 27). Human erythroleukemia K562 cell was purchased from ATCC and cultured in Roswell Park Memorial Institute (RPMI)—1640 medium containing 10% fetal bovine serum (FBS). Harvested K562 cells were resuspended in RPMI-1640 medium containing 5% FBS. […]
(§3) The adhesions of CHO-αIIbβ3 cells to fibrinogen, CHO-αvβ3 cells to fibrinogen, and K562 cells to fibronectin were used to determine the inhibitory activities of tested protein to integrins αIIbβ3, αvβ3, and α5β1. […] The resulting absorbance was read at 600 nm and the readings were correlated with the number of adhering cells. […]

In data set [5] the test system is integrin αvβ3. Put plainly: Cell adhesion assay: CHO-αvβ3 cells to fibrinogen. Format: cell-based. The settings on record: CHO-αvβ3 cells to immobilized fibrinogen. As for the experimental part:
as §1, §2, §3

For data set [6], the system named is platelets. Put plainly: Platelet aggregation (inducer not stated). In kind it is cell-based, human. The settings on record: Table 4; inducer not given. As for the experimental part:
(§4) Blood was collected from healthy volunteers who had not taken any medication for two weeks prior to the study. Informed consents were obtained from each and every participants, and the study was approved by the institutional review board of National Taiwan University Hospital. Preparation of human PS was performed in accordance with procedures described previously (Huang et al., Experimental haemtology. 2008 36(12), 1704-1713).
(§5) Disintegrin and its variants of Example 1 were subject to test for their abilities in suppressing platelet aggregation mediated by αIIbβ3. Briefly, venous blood samples from healthy donors were collected and platelet-rich plasma was prepared therefrom. The platelet-rich plasma was then incubated with the stimulant (e.g., collagen or […]) that triggered plug formation, then with the disintegrin and/or its variants of Example 1.

The subject of data set [7] is platelets. Put plainly: ADP-induced platelet aggregation in platelet-rich plasma. Format: cell-based, human. As for the experimental part: as §4, §5

In the case of `N=C(N)NCCCC[C@@H]1NC(=O)CCSSC[C@@H](C(N)=O)NC(=O)[C@@H]2CCCN2C(=O)[C@H](Cc2c[nH]c3ccccc23)NC(=O)[C@H](CC(=O)O)NC(=O)CNC1=O` [eptifibatide] ([Mpa][hArg]GDWPC-NH2; disulfide 1-7), the “IC50 on collagen-induced platelet aggregation” value in data set [1] (in vitro, FIG. 1 panel A) is 0.75 µg/mL (≈ 0.901 µM). Moreover, in data set [2], the Tail bleeding time entry is reported as “significantly prolong”. Further, the “Collagen-induced platelet aggregation response” value in data set [3] is reported as “significantly suppressed”.

Take Rhodostomin: the IC50 in data set [1] (read-out: Platelet aggregation IC50 (nM), Collagen, collagen-induced) was 66.8 nM; in data set [4], 59.5 nM; in data set [5] it was 13 ± 5.7 nM; in data set [6], 83.2 ± 10.4 nM; in data set [7], 81.5 nM.
